Test results as given in PMC8766924 (Angewandte Chemie (International ed. in English), 2021).

How the values were obtained:
[1] = biological target: T1, A^4.67-Y5R (Homo sapiens, UniProt Q15761, V181A); format: cell-based; conditions: Figure 6C; transiently transfected COS-7
T1 sequence (Q15761 1-445 V181A): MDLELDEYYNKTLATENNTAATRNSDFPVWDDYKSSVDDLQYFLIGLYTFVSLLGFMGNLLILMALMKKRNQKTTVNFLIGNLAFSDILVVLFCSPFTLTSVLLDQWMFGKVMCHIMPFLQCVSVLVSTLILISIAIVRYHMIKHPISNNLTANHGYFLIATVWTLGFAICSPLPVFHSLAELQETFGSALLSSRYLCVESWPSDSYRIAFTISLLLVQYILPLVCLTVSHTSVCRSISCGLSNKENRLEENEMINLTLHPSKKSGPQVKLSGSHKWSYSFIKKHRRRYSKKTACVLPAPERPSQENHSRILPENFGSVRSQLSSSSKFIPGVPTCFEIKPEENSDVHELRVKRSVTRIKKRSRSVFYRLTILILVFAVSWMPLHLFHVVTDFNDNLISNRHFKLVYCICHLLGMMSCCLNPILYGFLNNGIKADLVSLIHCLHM

[2] = system: Y5R; conditions: still binds Y5R but not other Y receptors; cited from earlier work
[3] = system: Y5R; assay: Calcium flux assay of NPY analogs; format: cell-based; conditions: Figure 3B-C, at least two independent experiments in triplicates

Substance	Potency loss at wt Y5R compared to NPY [3]	further results
A^28-NPY: NPY analog carrying Ala at position 28	–	Potency at A^4.67-Y5R compared to wt NPY [1]: lower potency
T32P-NPY: NPY with Thr32 substituted to Pro	–	Receptor selectivity [2]: selective Y5R agonist
W^36-NPY: NPY with Y^36 substituted by Trp	2 fold	–
[Y^36A]-NPY: NPY with Y^36 substituted by Ala	43 fold	–
